Molecular target: Amyloid-beta precursor protein (Homo sapiens, UniProt P05067)
Test: Displacement of [125I]IMPY from beta-amyloid plaques in Alzheimer's disease patient brain homogenate
Assay type: tissue-based

Chain of Amyloid-beta precursor protein (P05067 whole entry): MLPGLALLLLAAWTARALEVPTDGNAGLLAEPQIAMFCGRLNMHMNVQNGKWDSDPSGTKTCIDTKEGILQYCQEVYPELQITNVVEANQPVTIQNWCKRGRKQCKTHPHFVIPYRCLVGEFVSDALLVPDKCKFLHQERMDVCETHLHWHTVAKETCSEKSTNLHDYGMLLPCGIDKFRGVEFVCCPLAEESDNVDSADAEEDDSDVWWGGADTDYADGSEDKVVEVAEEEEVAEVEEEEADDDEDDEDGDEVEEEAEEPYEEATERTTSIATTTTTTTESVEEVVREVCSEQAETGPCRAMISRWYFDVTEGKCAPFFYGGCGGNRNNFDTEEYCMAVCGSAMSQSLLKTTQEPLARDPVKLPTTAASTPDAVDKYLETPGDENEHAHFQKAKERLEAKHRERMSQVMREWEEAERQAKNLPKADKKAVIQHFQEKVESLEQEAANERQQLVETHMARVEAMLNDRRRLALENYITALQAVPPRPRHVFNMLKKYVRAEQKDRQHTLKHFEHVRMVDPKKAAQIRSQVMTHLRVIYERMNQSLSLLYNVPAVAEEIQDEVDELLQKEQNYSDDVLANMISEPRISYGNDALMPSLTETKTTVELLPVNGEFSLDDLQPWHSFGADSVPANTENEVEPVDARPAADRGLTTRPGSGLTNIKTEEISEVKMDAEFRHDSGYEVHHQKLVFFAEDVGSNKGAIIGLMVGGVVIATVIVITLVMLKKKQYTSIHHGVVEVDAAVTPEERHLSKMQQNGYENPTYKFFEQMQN

Compound	Ki
Oc1ccc2nc(-c3ccc(F)cc3)sc2c1	22.5 nM
O=C(O)c1ccc2nc(-c3ccc(F)cc3)sc2c1	> 4000 nM
